Measurements as given in patent US10750743B2, “Pyridazinone herbicides” (E.I. DU PONT DE NEMOURS AND COMPANY, priority 2015, dated 2020).

Key:
Format in all cases: in vivo
[1] = test system: ryegrass, It. (Italian ryegrass, Lolium multiflorum); test: Test A preemergence, directed soil spray, visual injury rating; conditions: Lolium multiflorum, pre-emergence, 240 h, 0 is no effect, 100 is complete control, read-out: Plant response rating (0 to 100 scale), Ryegrass, It.; for pest or weed control at 125 g/ha: 125 g ai/ha
In short: (§1)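 Seeds sown in a loam soil–sand blend received a directed preemergence soil spray of test chemical in a non-phytotoxic solvent mixture with surfactant. Postemergence plants were sprayed at 2 to 10 cm, one- to two-leaf stage. After approximately 10 d in greenhouse, injury was visually rated 0 (no effect) to 100 (complete control) against untreated controls.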

[2] = test system: barnyardgrass (Echinochloa crus-galli); test: as above; conditions: Echinochloa crus-galli, pre-emergence, 240 h, 0 is no effect, 100 is complete control, read-out: Plant response rating (0 to 100 scale), Barnyardgrass; for pest or weed control at 125 g/ha: 125 g ai/ha
In short: as §1

[3] = test system: foxtail, giant (giant foxtail, Setaria faberii); test: as above; conditions: Setaria faberi, pre-emergence, 240 h, 0 is no effect, 100 is complete control, read-out: Plant response rating (0 to 100 scale), Foxtail, Giant; for pest or weed control at 125 g/ha: 125 g ai/ha
In short: as §1

[4] = test system: ragweed (common ragweed, Ambrosia elatior); test: as above; conditions: Ambrosia artemisiifolia, pre-emergence, 240 h, 0 is no effect, 100 is complete control, read-out: Plant response rating (0 to 100 scale), Ragweed; for pest or weed control at 125 g/ha: 125 g ai/ha
In short: as §1

[5] = test system: galium (catchweed bedstraw, Galium aparine); test: Test A postemergence application, visual injury rating; conditions: for pest or weed control at 125 g/ha: 125 g ai/ha
In short: as §1

[6] = test system: blackgrass (Alopecurus myosuroides); test: as above; conditions: Alopecurus myosuroides, post-emergence, 240 h, 0 to 100 scale, 0 no effect, 100 complete control, read-out: Blackgrass plant response rating; for pest or weed control at 125 g/ha: 125 g ai/ha
In short: as §1

[7] = test system: pigweed (Amaranthus retroflexus); test: as above; conditions: for pest or weed control at 125 g/ha: 125 g ai/ha
In short: as §1

[8] = test system: kochia (Kochia scoparia); test: as above; conditions: for pest or weed control at 125 g/ha: 125 g ai/ha
In short: as §1

[9] = test system: ryegrass, It. (Italian ryegrass, Lolium multiflorum); test: as above; conditions: for pest or weed control at 125 g/ha: 125 g ai/ha
In short: as §1

[10] = test system: corn (Zea mays); test: as above; conditions: for plant injury at 125 g/ha: 125 g ai/ha
In short: as §1

[11] = test system: barnyardgrass (Echinochloa crus-galli); test: as above; conditions: Echinochloa crus-galli, post-emergence, 240 h, 0 to 100 scale, 0 no effect, 100 complete control, read-out: Barnyardgrass plant response rating; for pest or weed control at 125 g/ha: 125 g ai/ha
In short: as §1

[12] = test system: foxtail, giant (giant foxtail, Setaria faberii); test: as above; conditions: for pest or weed control at 125 g/ha: 125 g ai/ha
In short: as §1

[13] = test system: ragweed (common ragweed, Ambrosia elatior); test: as above; conditions: for pest or weed control at 125 g/ha: 125 g ai/ha
In short: as §1

[14] = test system: wheat (Triticum aestivum); test: as above; conditions: for plant injury at 125 g/ha: 125 g ai/ha
In short: as §1

[15] = test system: sedge, umbrella (small-flower umbrella sedge, Cyperus difformis); test: Test B flooded paddy test, visual rating; conditions: Cyperus difformis, 360 h; Flood, 250 g ai/ha, applied to paddy water, rated after 13 to 15 d; read-out: Sedge, Umbrella plant response rating (0 to 100 scale, 0 is no effect, 100 is complete control)
In short: (§2)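 Plants at the 2-leaf stage were flooded to 3 cm above soil, and test compounds were applied directly into the paddy water, which was held at that depth throughout. After 13 to 15 d in a greenhouse, injury was rated visually against untreated controls on a 0–100 scale (0 no effect, 100 complete control).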

[16] = test system: ducksalad (Heteranthera limosa); test: Test B flooded paddy test, visual rating; conditions: Heteranthera limosa, 360 h; Flood, 250 g ai/ha, applied to paddy water, rated after 13 to 15 d; read-out: Ducksalad plant response rating (0 to 100 scale, 0 is no effect, 100 is complete control)
In short: as §2

[17] = test system: rice (Oryza sativa); test: Test B flooded paddy test, visual rating; conditions: Oryza sativa, 360 h; Flood, 250 g ai/ha, applied to paddy water, rated after 13 to 15 d; read-out: Rice plant response rating (0 to 100 scale, 0 is no effect, 100 is complete control)
In short: as §2

[18] = test system: barnyardgrass (Echinochloa crus-galli); test: Test B flooded paddy test, visual rating; conditions: Echinochloa crus-galli, 360 h; Flood, 250 g ai/ha, applied to paddy water, rated after 13 to 15 d; read-out: Barnyardgrass plant response rating (0 to 100 scale, 0 is no effect, 100 is complete control)
In short: as §2

[19] = 31 g ai/ha, 0 is no effect, 100 is complete control
[20] = Galium, post-emergence, 240 h, 0 to 100 scale, 0 no effect, 100 complete control, read-out: Galium plant response rating
[21] = Amaranthus retroflexus, post-emergence, 240 h, 0 to 100 scale, 0 no effect, 100 complete control, read-out: Pigweed plant response rating
[22] = Bassia scoparia, post-emergence, 240 h, 0 to 100 scale, 0 no effect, 100 complete control, read-out: Kochia plant response rating
[23] = Lolium multiflorum, post-emergence, 240 h, 0 to 100 scale, 0 no effect, 100 complete control, read-out: Ryegrass, It. plant response rating
[24] = Zea mays, post-emergence, 240 h, 0 to 100 scale, 0 no effect, 100 complete control, read-out: Corn plant response rating
[25] = Setaria faberi, post-emergence, 240 h, 0 to 100 scale, 0 no effect, 100 complete control, read-out: Foxtail, Giant plant response rating
[26] = Ambrosia artemisiifolia, post-emergence, 240 h, 0 to 100 scale, 0 no effect, 100 complete control, read-out: Ragweed plant response rating
[27] = Triticum aestivum, post-emergence, 240 h, 0 to 100 scale, 0 no effect, 100 complete control, read-out: Wheat plant response rating

Cc1nn(C)c(=O)c(-c2ccc(F)c3ccoc23)c1O [Compound 68, 4-(4-fluoro-7-benzofuranyl)-5-hydroxy-2,6-dimethyl-3(2H)-pyridazinone] was tested, and the pest or weed control at 31 g/ha ([1]; 31 g ai/ha) was 20%, the pest or weed control at 125 g/ha [1] was 80% and the pest or weed control at 31 g/ha ([2]; 31 g ai/ha) was 0%. For the same compound, the pest or weed control at 125 g/ha [2] was 20%, the pest or weed control at 31 g/ha ([3]; 31 g ai/ha) was 0% and the pest or weed control at 125 g/ha [3] was 20%. For the same compound, the pest or weed control at 31 g/ha ([4]; 31 g ai/ha) was 30%, the pest or weed control at 125 g/ha [4] was 50% and the “Plant response rating (0 to 100 scale), Galium” value [5, 19] was 60. The pest or weed control at 125 g/ha [5, 20] was 90%, the pest or weed control at 31 g/ha ([6]; 31 g ai/ha) was 0% and the pest or weed control at 125 g/ha [6] was 60%. The “Plant response rating (0 to 100 scale), Pigweed” value [7, 19] was 0, the pest or weed control at 125 g/ha [7, 21] was 20% and the “Plant response rating (0 to 100 scale), Kochia” value [8, 19] was 20. The pest or weed control at 125 g/ha [8, 22] was 90%, the “Plant response rating (0 to 100 scale), Ryegrass, It.” value [9, 19] was 80 and the pest or weed control at 125 g/ha [9, 23] was 90%. The “Plant response rating (0 to 100 scale), Corn” value [10, 19] was 0, the plant injury at 125 g/ha [10, 24] was 0% and the pest or weed control at 31 g/ha ([11]; 31 g ai/ha) was 0%. For the same compound, the pest or weed control at 125 g/ha [11] was 10%, the “Plant response rating (0 to 100 scale), Foxtail, Giant” value [12, 19] was 0 and the pest or weed control at 125 g/ha [12, 25] was 20%. For the same compound, the “Plant response rating (0 to 100 scale), Ragweed” value [13, 19] was 0, the pest or weed control at 125 g/ha [13, 26] was 10% and the “Plant response rating (0 to 100 scale), Wheat” value [14, 19] was 0. For the same compound, the plant injury at 125 g/ha [14, 27] was 0%, the pest or weed control at 250 g/ha [15] was 0% and the pest or weed control at 250 g/ha [16] was 0%. The plant injury at 250 g/ha [17] was 0% and the pest or weed control at 250 g/ha [18] was 0%.
Compound CCOC(=O)Oc1c(C)nn(C)c(=O)c1-c1c(C)ccc2sccc12 [Compound 30, 1,6-dihydro-1,3-dimethyl-5-(5-methylbenzo[b]thien-4-yl)-6-oxo-4-pyridazinyl ethyl carbonate] has a pest or weed control at 125 g/ha [1] of 90%, a pest or weed control at 500 g/ha ([1]; 500 g ai/ha) of 100% and a pest or weed control at 125 g/ha [2] of 0%. For the same compound, the pest or weed control at 500 g/ha ([2]; 500 g ai/ha) was 90%, the pest or weed control at 125 g/ha [3] was 0% and the pest or weed control at 500 g/ha ([3]; 500 g ai/ha) was 80%. For the same compound, the pest or weed control at 125 g/ha [4] was 20%, the pest or weed control at 500 g/ha ([4]; 500 g ai/ha) was 90% and the pest or weed control at 125 g/ha [5, 20] was 90%. For the same compound, the pest or weed control at 500 g/ha ([5]; Galium, post-emergence, 240 h, 500 g ai/ha, 0 to 100 scale, 0 no effect, 100 complete control, read-out: Galium plant response rating) was 100%, the pest or weed control at 125 g/ha [6] was 40% and the pest or weed control at 500 g/ha ([6]; 500 g ai/ha) was 90%. The pest or weed control at 125 g/ha [7, 21] was 90%, the pest or weed control at 500 g/ha ([7]; Amaranthus retroflexus, post-emergence, 240 h, 500 g ai/ha, 0 to 100 scale, 0 no effect, 100 complete control, read-out: Pigweed plant response rating) was 90% and the pest or weed control at 125 g/ha [8, 22] was 90%. For the same compound, the pest or weed control at 500 g/ha ([8]; Bassia scoparia, post-emergence, 240 h, 500 g ai/ha, 0 to 100 scale, 0 no effect, 100 complete control, read-out: Kochia plant response rating) was 100%, the pest or weed control at 125 g/ha [9, 23] was 100% and the pest or weed control at 500 g/ha ([9]; Lolium multiflorum, post-emergence, 240 h, 500 g ai/ha, 0 to 100 scale, 0 no effect, 100 complete control, read-out: Ryegrass, It. plant response rating) was 100%. It also gave a plant injury at 125 g/ha [10, 24] of 20%, a plant injury at 500 g/ha ([10]; Zea mays, post-emergence, 240 h, 500 g ai/ha, 0 to 100 scale, 0 no effect, 100 complete control, read-out: Corn plant response rating) of 40% and a pest or weed control at 125 g/ha [11] of 10%. The pest or weed control at 500 g/ha ([11]; 500 g ai/ha) was 80%, the pest or weed control at 125 g/ha [12, 25] was 10% and the pest or weed control at 500 g/ha ([12]; Setaria faberi, post-emergence, 240 h, 500 g ai/ha, 0 to 100 scale, 0 no effect, 100 complete control, read-out: Foxtail, Giant plant response rating) was 70%. For the same compound, the pest or weed control at 125 g/ha [13, 26] was 60%, the pest or weed control at 500 g/ha ([13]; Ambrosia artemisiifolia, post-emergence, 240 h, 500 g ai/ha, 0 to 100 scale, 0 no effect, 100 complete control, read-out: Ragweed plant response rating) was 90% and the plant injury at 125 g/ha [14, 27] was 0%. The plant injury at 500 g/ha ([14]; Triticum aestivum, post-emergence, 240 h, 500 g ai/ha, 0 to 100 scale, 0 no effect, 100 complete control, read-out: Wheat plant response rating) was 30%, the pest or weed control at 250 g/ha [15] was 0% and the pest or weed control at 250 g/ha [16] was 0%. The plant injury at 250 g/ha [17] was 0% and the pest or weed control at 250 g/ha [18] was 0%.
